The source of these data is US10710986B2, “PD-1/PD-L1 inhibitors” (Gilead Sciences, Inc., priority 2018, dated 2020).

The target of the assay is PD-1/PD-L1 (Homo sapiens (Human), UniProt Q9NZQ7). Nature of the assay: PD-1/PD-L1 biochemical protein-protein interaction assay (ALPHA). Conditions: 0.3 nM His tagged PD-L1, 2.5 nM biotinylated Fc-PD-1, 60 minutes at 25° C., read-out: IC50 PD-L1-PD1. As to the method:
Binding of the protein pairs is measured using a bead based Amplified Luminescent Proximity Homogeneous Assay (ALPHA) platform. Binding of each protein pair results in proximity of the donor and acceptor beads which leads to an increase in ALPHA signal. […] Assays are performed in 25 mM Hepes (pH 7.4), 150 mM NaCl, 3.4 mM EDTA, 0.005% Tween 20, and 0.01% BSA. […] After an assay reaction time of 60 minutes at 25° C., binding was measured with addition of 20 μg/mL ALPHA assay acceptor beads (anti-His coated) and 20 µg/mL ALPHA assay donor beads (streptavidin coated). IC50 values were calculated from the fit of the dose-response curves to a four-parameter equation.

The IC50 is the point on the concentration scale where inhibition reaches its midpoint.

The structures appear in SMILES notation.

Chain of PD-1/PD-L1 (Q9NZQ7 19-238): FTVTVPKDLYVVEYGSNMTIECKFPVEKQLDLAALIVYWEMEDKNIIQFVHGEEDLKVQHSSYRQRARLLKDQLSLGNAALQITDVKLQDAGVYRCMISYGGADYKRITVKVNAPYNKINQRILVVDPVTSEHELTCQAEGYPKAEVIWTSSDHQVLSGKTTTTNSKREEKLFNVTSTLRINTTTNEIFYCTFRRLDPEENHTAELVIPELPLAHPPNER

For the molecule `CN(C)c1nc(-c2cccc(-c3cccc(-c4cnc(CNC[C@@H]5CCC(=O)N5)c(N(C)C)n4)c3Cl)c2Cl)cnc1CNC[C@@H]1CCC(=O)N1` [compound 105], the concentration for half-maximal inhibition (IC50) was 0.302 nM.
Under `CN(C)c1nc(-c2cccc(-c3cccc(-c4cnc(CNC[C@@H]5CCC(=O)N5)c(Cl)n4)c3Cl)c2Cl)cnc1CNC[C@@H]1CCC(=O)N1` [compound 106] stands 0.36 nM; under `COC1CN(Cc2ncc(-c3cccc(-c4cccc(-c5cnc(CN6CC(OC)C6)c(Cl)n5)c4Cl)c3Cl)nc2Cl)C1` [compound 107], 1.54 nM; under `OC1CN(Cc2ncc(-c3cccc(-c4cccc(-c5cnc(CN6CC(O)C6)c(Cl)n5)c4Cl)c3Cl)nc2Cl)C1` [compound 108], 0.474 nM.
The figure for `O=C1CC2(CN1)CN(Cc1ncc(-c3cccc(-c4cccc(-c5cnc(CN6CC7(CNC(=O)C7)C6)c(Cl)n5)c4Cl)c3Cl)nc1Cl)C2` [compound 109] is 0.586 nM; for `O=C1CCC2(CN(Cc3ncc(-c4cccc(-c5cccc(-c6cnc(CN7CC8(CCC(=O)N8)C7)c(Cl)n6)c5Cl)c4Cl)nc3Cl)C2)N1` [compound 110] it is 0.327 nM; for `O=C1CC[C@@H](CNCc2ncc(-c3cccc(-c4cccc(-c5cnc(CNC[C@@H]6CCC(=O)N6)c(Cl)n5)c4Cl)c3Cl)nc2Cl)N1` [compound 111] it is 0.297 nM.
In the case of `COc1nc(-c2cccc(-c3cccc(-c4cnc(CN5CC(O)C5)c(OC)n4)c3Br)c2Br)cnc1CN1CC(O)C1` [compound 112], the IC50 amounted to 0.076 nM.
The figure for `COc1nc(-c2cccc(-c3cccc(-c4cnc(CNC[C@@H]5CCC(=O)N5)c(OC)n4)c3Br)c2Br)cnc1CNC[C@@H]1CCC(=O)N1` [compound 113] is 0.211 nM; for `COc1nc(-c2cccc(-c3cccc(-c4cnc(CN5CC6(CNC(=O)C6)C5)c(OC)n4)c3Cl)c2Cl)ccc1C1=NCCN1` [compound 114] it is 0.064 nM; for `COc1nc(-c2cccc(-c3cccc(-c4cnc(CN5CC6(CCC(=O)N6)C5)c(OC)n4)c3Cl)c2Cl)ccc1C1=NCCN1` [compound 115] it is 0.115 nM.
Under `COc1nc(-c2cccc(-c3cccc(-c4cnc(CN5CC(O)C5)c(OC)n4)c3Cl)c2Cl)ccc1C1=NCCN1` [compound 116] stands 0.064 nM.
Under `COc1nc(-c2cccc(-c3cccc(-c4cnc(CNC[C@@H]5CCC(=O)N5)c(OC)n4)c3Cl)c2Cl)ccc1C1=NCCN1` [compound 117] stands 0.281 nM; under `COc1nc(-c2cccc(-c3cccc(-c4cnc(CN5CC(F)C5)c(OC)n4)c3Cl)c2Cl)cnc1CN1CC(F)C1` [compound 118], 0.715 nM.
For the molecule `COc1nc(-c2cccc(-c3cccc(-c4cnc(C5=NCC(F)(F)CN5)c(OC)n4)c3Cl)c2Cl)cnc1C1=NCC(F)(F)CN1` [compound 119], the IC50 was 0.115 nM.
The figure for `COc1nc(-c2cccc(-c3cccc(-c4cnc(CN5CC6(CNC(=O)C6)C5)c(OC)n4)c3Cl)c2Cl)cnc1CN1CC2(CNC(=O)C2)C1` [compound 120] is 0.32 nM.
With `COc1nc(-c2cccc(-c3cccc(-c4cnc(C5=NC[C@H](C)N5)c(OC)n4)c3Cl)c2Cl)cnc1C1=NC[C@H](C)N1` [compound 121], the IC50 was 0.064 nM.
Take `COc1cc(-c2cccc(-c3cccc(-c4cnc(CN)c(OC)n4)c3Cl)c2Cl)ccc1CN` [compound 122]: the IC50 was determined as 1.69 nM.
The figure for `COc1cc(-c2cccc(-c3cccc(-c4cnc(CN5CC6(CNC(=O)C6)C5)c(OC)n4)c3Cl)c2Cl)ccc1CN1CC2(CNC(=O)C2)C1` [compound 123] is 0.112 nM; for `COc1cc(-c2cccc(-c3cccc(-c4cnc(CN5CC6(CCC(=O)N6)C5)c(OC)n4)c3Cl)c2Cl)ccc1CN1CC2(CCC(=O)N2)C1` [compound 124] it is 0.19 nM.
The figure for `COc1cc(-c2cccc(-c3cccc(-c4cnc(CNC[C@@H]5CCC(=O)N5)c(OC)n4)c3Cl)c2Cl)ccc1CNC[C@@H]1CCC(=O)N1` [compound 125] is 0.225 nM; for `COc1nc(-c2cccc(-c3cccc(-c4cnc(CNC[C@@H]5CCC(=O)N5)c(OC)n4)c3Cl)c2Cl)ccc1CNC[C@@H]1CCC(=O)N1` [compound 126, (S)-5-((((6-(2,2′-dichloro-3′-(6-methoxy-5-(((((S)-5-oxopyrrolidin-2-yl)methyl)amino)methyl)pyrazin-2-yl)-[1,1′-biphenyl]-3-yl)-2-methoxypyridin-3-yl)methyl)amino)methyl)pyrrolidin-2-one] it is 0.272 nM; for `COc1nc(-c2cccc(-c3cccc(-c4cnc(C5=NCC(C)(C)N5)c(OC)n4)c3Cl)c2Cl)cnc1C1=NCC(C)(C)N1` [compound 127] it is 0.064 nM.
Under `COc1nc(-c2cccc(-c3cccc(-c4cnc(C5=NCC(O)CN5)c(OC)n4)c3Cl)c2Cl)cnc1C1=NCC(O)CN1` (centres unmarked) [compound 128] stands 0.557 nM; under `COc1nc(-c2cccc(-c3cccc(-c4cnc(C5=NC[C@@H](C)N5)c(OC)n4)c3Cl)c2Cl)cnc1C1=NC[C@@H](C)N1` [compound 129], 0.064 nM.
As to `COc1nc(-c2cccc(-c3cccc(-c4cnc(CN5CC[C@@H](O)C5)c(OC)n4)c3Cl)c2Cl)cnc1CN1CC[C@@H](O)C1` [compound 130], the half-maximal inhibitory concentration (IC50) came to 0.185 nM.
As to `COc1nc(-c2cccc(-c3cccc(-c4cnc(CN5CC(O)C5)c(OC)n4)c3Cl)c2Cl)cnc1CN1CC(O)C1` [compound 131], the half-inhibitory concentration (IC50) was 0.309 nM.
With `COc1nc(-c2cccc(-c3cccc(-c4cnc(CN5CC[C@H](O)C5)c(OC)n4)c3Cl)c2Cl)cnc1CN1CC[C@H](O)C1` [compound 132], the IC50 was 0.753 nM.
The figure for `COc1nc(-c2cccc(-c3cccc(-c4cnc(C5=NC[C@H](CO)N5)c(OC)n4)c3Cl)c2Cl)cnc1C1=NC[C@H](CO)N1` [compound 133] is 0.064 nM; for `COc1nc(-c2cccc(-c3cccc(-c4cnc(C5=NC[C@@H](CO)N5)c(OC)n4)c3Cl)c2Cl)cnc1C1=NC[C@@H](CO)N1` [compound 134] it is 0.064 nM.
The figure for `COc1nc(-c2cccc(-c3cccc(-c4cnc(CN)c(OC)n4)c3Cl)c2Cl)cnc1CN` [compound 135] is 0.733 nM; for `COc1nc(-c2cccc(-c3cccc(-c4cnc(CN5CC6(CCC(=O)N6)C5)c(OC)n4)c3Cl)c2Cl)cnc1CN1CC2(CCC(=O)N2)C1` [compound 136] it is 0.147 nM.
The figure for `COc1nc(-c2cccc(-c3cccc(-c4cnc(CNC[C@@H](O)CC(=O)O)c(OC)n4)c3Cl)c2Cl)cnc1CNC[C@@H](O)CC(=O)O` [compound 137] is 0.168 nM.
Consider `COc1nc(-c2cccc(-c3cccc(-c4cnc(CNCCO)c(OC)n4)c3Cl)c2Cl)cnc1CNCCO` [compound 140], for which the IC50 came to 0.26 nM.
The figure for `COc1nc(-c2cccc(-c3cccc(-c4cnc(C5=NCCN5)c(OC)n4)c3Cl)c2Cl)cnc1C1=NCCN1` [compound 141] is 0.064 nM.
Take `COc1nc(-c2cccc(-c3cccc(-c4cnc(CN5CC[C@](C)(O)C5)c(OC)n4)c3Cl)c2Cl)cnc1CN1CC[C@](C)(O)C1` [compound 142]: the IC50 stood at 0.2 nM.
The figure for `COc1nc(-c2cccc(-c3cccc(-c4cnc(CN[C@@H]5CCOC5)c(OC)n4)c3Cl)c2Cl)cnc1CN[C@@H]1CCOC1` [compound 143] is 0.41 nM.
Under `COc1nc(-c2cccc(-c3cccc(-c4cnc(CN[C@H]5CCOC5)c(OC)n4)c3Cl)c2Cl)cnc1CN[C@H]1CCOC1` [compound 144] stands 0.24 nM.
The figure for `COc1nc(-c2cccc(-c3cccc(-c4cnc(CN5CC(CO)C5)c(OC)n4)c3Cl)c2Cl)cnc1CN1CC(CO)C1` [compound 145] is 0.1 nM; for `COc1nc(-c2cccc(-c3cccc(-c4cnc(CN5CCC(C)(O)C5)c(OC)n4)c3Cl)c2Cl)cnc1CN1CCC(C)(O)C1` (centres unmarked) [compound 146] it is 0.13 nM.
With `COc1nc(-c2cccc(-c3cccc(-c4cnc(CN5CC(C)(O)C5)c(OC)n4)c3Cl)c2Cl)cnc1CN1CC(C)(O)C1` [compound 147], the IC50 was 0.06 nM.
Under `COc1nc(-c2cccc(-c3cccc(-c4cnc(CN5CC(C)(CO)C5)c(OC)n4)c3Cl)c2Cl)cnc1CN1CC(C)(CO)C1` [compound 148] stands 0.06 nM.
The figure for `COc1nc(-c2cccc(-c3cccc(-c4cnc(CN[C@H]5C[C@H](CO)C5)c(OC)n4)c3Cl)c2Cl)cnc1CN[C@H]1C[C@H](CO)C1` [compound 149] is 0.27 nM; for `COc1nc(-c2cccc(-c3cccc(-c4cnc(CN[C@H]5C[C@@H](CO)C5)c(OC)n4)c3Cl)c2Cl)cnc1CN[C@H]1C[C@@H](CO)C1` [compound 150] it is 0.2 nM; for `COc1nc(-c2cccc(-c3cccc(-c4ccc(CN5CC6(CCC(=O)N6)C5)c(C#N)c4)c3Cl)c2Cl)cnc1CNC[C@@H]1CCC(=O)N1` [compound 151] it is 0.684 nM.
For the molecule `COc1nc(-c2cccc(-c3cccc(-c4ccc(CNC[C@@H]5CCC(=O)N5)c(C#N)c4)c3Cl)c2Cl)cnc1CNC[C@@H]1CCC(=O)N1` [compound 152], the IC50 was 0.073 nM.
On to `COc1nc(-c2cccc(-c3cccc(-c4ccc(CN5CC(O)C5)c(C#N)c4)c3Cl)c2Cl)cnc1CNC[C@@H]1CCC(=O)N1` [compound 153], for which the IC50 is 0.396 nM.
Under `COc1nc(-c2cccc(-c3cccc(-c4ccc(CN5CC(C)(CO)C5)c(C#N)c4)c3Cl)c2Cl)cnc1CNC[C@@H]1CCC(=O)N1` [compound 154] stands 0.126 nM.
Consider `COc1nc(-c2cccc(-c3cccc(-c4cnc(CNC[C@@H]5CCC(=O)N5)c(OC)n4)c3Cl)c2Cl)ccc1CNCc1ccc2[nH]c(C)cc2c1` [compound 155], for which the IC50 was determined as 1.65 nM.
The figure for `COc1nc(-c2cccc(-c3cccc(-c4cnc(CNC[C@@H]5CCC(=O)N5)c(OC)n4)c3Cl)c2Cl)ccc1CN1CC(C)(CO)C1` [compound 156] is 0.084 nM.
